Our source for the TGI and GI50 values is PubChem BioAssay (NCI).

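Where inhibition never reached the appropriate level, the endpoint shown equals the highest concentration tested. Otherwise, values were interpolated linearly from a five-concentration, 48-hour dose response in 96-well plates. GI50: concentration for 50% inhibition of growth. TGI: total growth inhibition.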

Test systems include NCI-H460 lung; MCF7 breast; OVCAR-8 ovarian; MALME-3M melanoma; ACHN renal; SR leukemia; IGROV1 ovarian; NCI-H522 lung; HT29 colon; HS 578T breast.
Common to all, as to experiment: inhibition of tumour cell growth, NCI panel, 48 h

For the molecule `O=c1[nH]c2nccnc2c2c([N+](=O)[O-])cccc12`, the TGI in the assay with NCI-H460 lung, in the assay with MCF7 breast, with OVCAR-8 ovarian, in the assay on MALME-3M melanoma, in the assay with ACHN renal and in the assay on SR leukemia was greater than 100 µM in each case. In addition, the TGI with IGROV1 ovarian, with NCI-H522 lung, in the assay with HT29 colon and in the assay with HS 578T breast was greater than 100 µM throughout.
For the molecule `O=C1OC(C2Cc3ccccc3C2=O)c2ccccc21` (stereo not given), the TGI in the assay with NCI-H460 lung, with MCF7 breast, in the assay with OVCAR-8 ovarian, in the assay on MALME-3M melanoma, in the assay with ACHN renal and with SR leukemia was greater than 100 µM each time. Also, the TGI was greater than 100 µM with IGROV1 ovarian, greater than 100 µM in the assay on NCI-H522 lung, 60.5 µM in the assay on HT29 colon and greater than 100 µM in the assay on HS 578T breast.
Take `O=C(O)CCC(C(=O)O)N1C(=O)c2ccccc2C1=O` (stereo not given): the TGI in the assay with NCI-H460 lung, in the assay on MCF7 breast, with OVCAR-8 ovarian, in the assay with MALME-3M melanoma, in the assay on ACHN renal and in the assay with SR leukemia was greater than 100 µM in each case. Also, the TGI in the assay on IGROV1 ovarian, with NCI-H522 lung, with HT29 colon and with HS 578T breast was greater than 100 µM in each case.
Consider `O=C(Nc1ccc(-n2cc(-c3ccncc3)c(-c3ccc(O)c(Cl)c3)n2)cc1)c1cc(Cl)cc(Cl)c1`, for which the GI50 with NCI-H460 lung was 2 µM; in the assay on MCF7 breast, 3.33 µM; in the assay with OVCAR-8 ovarian it was 1.66 µM; with MALME-3M melanoma, 2.66 µM; in the assay on ACHN renal it was 1.51 µM; in the assay with SR leukemia, 1.36 µM. Further, the GI50 with IGROV1 ovarian is greater than 32.5 µM; in the assay on NCI-H522 lung, 1.03 µM; in the assay with HT29 colon, 1.01 µM; with HS 578T breast it was 0.939 µM. For the same molecule, the TGI with NCI-H460 lung, in the assay with MCF7 breast, in the assay with OVCAR-8 ovarian, in the assay on MALME-3M melanoma, in the assay with ACHN renal and in the assay with SR leukemia was greater than 32.5 µM throughout. The TGI in the assay on IGROV1 ovarian was greater than 32.5 µM; in the assay with NCI-H522 lung it was greater than 32.5 µM; in the assay with HT29 colon it was 5.11 µM; in the assay on HS 578T breast, 6.52 µM.
`O=c1c2ncn(C3CCCCO3)c2n(-c2ccccc2)c(=S)n1-c1ccccc1` (stereo not given): the TGI in the assay on NCI-H460 lung, in the assay on MCF7 breast, in the assay with OVCAR-8 ovarian, in the assay on MALME-3M melanoma, in the assay on ACHN renal and with SR leukemia was greater than 100 µM throughout. In addition, the TGI with IGROV1 ovarian is 69.2 µM; with NCI-H522 lung, greater than 86.7 µM; in the assay on HT29 colon, greater than 100 µM; in the assay with HS 578T breast it was 53.6 µM.
For the molecule `O=c1[nH]nc(-c2ccc([N+](=O)[O-])cc2)n1/N=C/c1ccc([N+](=O)[O-])cc1`, the TGI in the assay with NCI-H460 lung, in the assay on MCF7 breast, with OVCAR-8 ovarian, in the assay on MALME-3M melanoma, in the assay with ACHN renal and with SR leukemia was greater than 100 µM in each case. In addition, the TGI in the assay with IGROV1 ovarian, in the assay on NCI-H522 lung, in the assay with HT29 colon and with HS 578T breast was greater than 100 µM in each case.
With `OCCN1CN(c2nc(N3CN(CCO)C3)nc(N3CN(CCO)C3)n2)C1`, the TGI in the assay on NCI-H460 lung was 36.1 µM; with MCF7 breast, 46.9 µM; with OVCAR-8 ovarian, greater than 100 µM; in the assay with MALME-3M melanoma, 39.3 µM; in the assay with ACHN renal, 95.3 µM; with SR leukemia it was greater than 100 µM. Also, the TGI with IGROV1 ovarian stood at 85.6 µM; in the assay with NCI-H522 lung, 30 µM; in the assay on HT29 colon it was 71.4 µM; in the assay with HS 578T breast, 66.7 µM.
On to `CCOP(=O)(CC1CC(O)(CNc2cc(Cl)nc(N)n2)C1)OCC` (stereo not given), for which the TGI in the assay on NCI-H460 lung, in the assay on MCF7 breast, with OVCAR-8 ovarian, in the assay on MALME-3M melanoma, in the assay on ACHN renal and in the assay with SR leukemia was greater than 100 µM in each case. The TGI in the assay on IGROV1 ovarian, in the assay with NCI-H522 lung, in the assay with HT29 colon and with HS 578T breast was greater than 100 µM each time.
As for `COc1ccc(OC)c(C(=O)/C=C/c2cc(O)c(O)cc2F)c1`, the TGI in the assay on NCI-H460 lung is 9.27 µM; in the assay on MCF7 breast it was 14.3 µM; in the assay on OVCAR-8 ovarian it was 24.3 µM; in the assay on MALME-3M melanoma, 27.4 µM; in the assay with ACHN renal it was greater than 50.3 µM; in the assay on SR leukemia, 4.62 µM. For the same molecule, the TGI in the assay on IGROV1 ovarian is 34.2 µM; in the assay on NCI-H522 lung, 0.948 µM; in the assay on HT29 colon, 29.3 µM; in the assay with HS 578T breast, greater than 100 µM.
As for `COC(=O)C1=C(O)C(C(=O)OC)[C@]2(O)[C@H](C(=O)OC)[C@H]1C[C@@H](c1cccc(OC)c1)[C@H]2C(=O)OC` (stereo not given in full), the TGI is 65.7 µM in the assay with NCI-H460 lung; greater than 100 µM in the assay with MCF7 breast; greater than 100 µM in the assay on OVCAR-8 ovarian; greater than 100 µM with MALME-3M melanoma; 40.4 µM in the assay on ACHN renal; greater than 100 µM with SR leukemia. Further, the TGI with IGROV1 ovarian was greater than 100 µM; in the assay with NCI-H522 lung, 33.3 µM; in the assay with HT29 colon, greater than 100 µM; in the assay with HS 578T breast, 55 µM.
